# Test results: patent US20240285680A1, “METHOD OF TREATING ALZHEIMER'S DISEASE” (Vector Vitale IP LLC, priority 2021, published 2024)
# Values joined by “and” are separate entries in the source; they are usually repeats but may differ in a detail not shown here. Identical values can stand only once.
# Tests used:
# [1] = Body weight changes in rat models of Aβ1-40-induced AD; assay type: in vivo; conditions: Aβ1-40 AD rats, treated group; baseline before the operation
# From the text: Male Wistar rats (300-500 g) were used. The animals were maintained under standard conditions in the vivarium of the ESC “Institute of Biology and Medicine” of Taras Shevchenko National University of Kyiv. They were given ad libitum access to food and water.
# Alzheimer's Disease was induced in old male rats (14 months old) by giving them intrahippocampal injections of aggregated Amyloid Beta (Aβ 1-40) Peptide (human) (Cayman Chemical Company) and Amyloid Beta (Aβ 25-35) Peptide (human) (Tocris Bioscience, Brostol). Aβ1-40 and Aβ 25-35 were dissolved in bidistilled water to the concentration of 15 μmol/L and incubated at 37° C. for 24 hours for aggregation. Aβ conglomerates were broken up by ultrasound and sterilized immediately prior to injection.
# Rats were anesthetized using a mixture of ketamine (75 mg/kg, diluted in sterile water for injection, Sigma, USA) and 2% xylazine (100 μl/rat, Alfasan International B.V., Netherlands) administered intraperitoneally in a total volume of 1 ml. A rat was placed in a stereotaxic apparatus (SEZH-4) modified for rats. The animal was then scalped from the point of intersection of the sagittal suture with bregma (zero point): 2 mm distally, 2 mm laterally and 3.5 mm in depth and a trephine opening was made with an injection needle, directly into the hippocampus. […]
# [2] = tested on: tyrosine hydroxylase (TH); experiment: Immunohistochemical identification of tyrosine hydroxylase in hippocampus, Aβ1-40-induced AD rats; assay type: in vivo, rat; conditions: Aβ1-40 AD rats; TH-positive hippocampal cells; individual animals 661 E, F, G; listed as Zn
# Description: (§1) Degeneration of the hippocampal neurons was assessed using immunohistochemical analysis for the expression level of tyrosine hydroxylase (TH). Immunohistochemical staining was performed using primary anti-TH antibodies at a 1:200 dilution (Millipore, AB152). Endogenous peroxidase activity was blocked with a blocking reagent (Dako, EnVision Flex, DM821). Nonspecific antibody binding was blocked using 4% dry milk dissolved in Tris-buffered saline (TBS) containing 0.2% Triton X-100.
# (§2) The primary antibody was diluted in TBS containing 0.2% Triton X-100 and applied to tissue sections. The sections were then incubated overnight (+4° C.). Secondary antibodies (anti-rabbit biotinylated antibodies, 1:200) were incubated for 60 minutes. The immunoreaction was developed using diaminobenzidine (Dako, EnVision) applied for 5 minutes. The results of immunohistochemical staining were evaluated at the light-optical level using a Zeiss Primo Star microscope. The intensity of TH-positive staining was evaluated using a semiquantitative scoring system as described in the Quantitative Scoring Method ([http://www.ihcworld.com/ihc_scoring.htm]) taking into account the number of positive (stained) cells and the intensity of staining (Table 1). The results were presented as a quick score (Q) calculated by the following formula: Q=P×I, where P is the percentage of positive cells and I is the staining intensity.
# [3] = tested on: rat models of Aβ1-40-induced Alzheimer's disease; experiment: Barnes maze memory and cognitive flexibility tests, Aβ1-40-induced AD rats; assay type: in vivo; conditions: Aβ1-40 model; for Time spent near the entrance to the “escape box”, after surgery / Time spent near the entrance to the “escape box”, % of changes / Time spent near the entrance to the “escape box”, before surgery: cognitive flexibility; for Time spent near the entrance to the “escape box”, after surgery / Time spent to find the “escape box”, after surgery: after surgery and treatment; for Time spent near the entrance to the “escape box”, after surgery / Time spent near the entrance to the “escape box”, before surgery / Time spent to find the “escape box”, after surgery / Time spent to find the “escape box”, before surgery: M ± SD; for Time spent near the entrance to the “escape box”, % of changes / Time spent to find the “escape box”, % of changes: after vs before surgery; for Time spent near the entrance to the “escape box”, before surgery / Time spent to find the “escape box”, before surgery: baseline before surgery
# Description: Kinga Gawel et al., Assessment of spatial learning and memory in the Barnes maze task in rodents-methodological consideration, Naunyn Schmiedebergs Arch Pharmacol. 2019; 392(1): 1-18. doi: 10.1007/s00210-018-1589-y.
# The other holes remained open.
# The rat was allowed to move freely around the table for 2-3 minutes.
# Fifteen minutes after the habituation session, on the 2nd, 3rd and 4th days of the experiment, the task training was repeated 4 times every 15 minutes (min) (3 min on the table surface+1 min in the “escape box” with the light off).
# The table surface was disinfected after each trial.
# 18 days after the operation, the animals had another 4-day training session (probe phase) with a changed location of the “escape box”.
# The following time periods were measured in seconds: 1) the time the animal spent to find the entrance to the “escape box” (assessment of spatial learning and spatial memory associated with the hippocampal function); 2) the time the animal spent near the entrance (assessment of cognitive flexibility associated with the function of the frontal cortex of the brain)—the less time the animal spends near the closed entrance, the quicker it understands that it is necessary to look for escape elsewhere.
# [4] = tested on: tyrosine hydroxylase (TH); experiment: Immunohistochemical identification of tyrosine hydroxylase in hippocampus, Aβ25-35-induced AD rats; assay type: in vivo, rat; conditions: Aβ25-35 AD rats
# Description: as §1, §2
# CD86 = CD86 expression in circulating phagocytes, Aβ25-35 model; assay type: in vivo, rat; conditions: Aβ25-35 AD rats
# Description: The phenotypic profile of phagocytes of various localization was characterized by the expression of markers of functional maturity and metabolic polarization (CD206 and CD86), which was determined by flow cytometry and the use of monoclonal antibodies of appropriate specificity marked with fluorescent dyes (Abcam, Becton Dickinson).
# [5] = tested on: rat models of Aβ25-35-induced Alzheimer's disease; experiment: Barnes maze memory and cognitive flexibility tests, Aβ25-35-induced AD rats; conditions: for Time spent near the entrance to the “escape box”, after surgery / Time spent near the entrance to the “escape box”, % of changes / Time spent near the entrance to the “escape box”, before surgery / Time spent to find the “escape box”, after surgery / Time spent to find the “escape box”, % of changes / Time spent to find the “escape box”, before surgery: Aβ25-35 model; for Time spent near the entrance to the “escape box”, after surgery / Time spent near the entrance to the “escape box”, % of changes / Time spent near the entrance to the “escape box”, before surgery: cognitive flexibility; for Time spent near the entrance to the “escape box”, after surgery / Time spent to find the “escape box”, after surgery: after surgery and treatment; for Time spent near the entrance to the “escape box”, after surgery / Time spent near the entrance to the “escape box”, before surgery / Time spent to find the “escape box”, after surgery / Time spent to find the “escape box”, before surgery: M ± SD; for Time spent near the entrance to the “escape box”, % of changes / Time spent to find the “escape box”, % of changes: after vs before surgery; for Time spent near the entrance to the “escape box”, before surgery / Time spent to find the “escape box”, before surgery: baseline before surgery
# From the text: An animal learns to remember the location of the target zone (“escape box”) using peripheral visual cues in the testing area as reference points.
# Barnes maze used consisted of a circular table with 16 circular holes around its circumference. Peripheral visual cues, such as black marks (a triangle on one wall and two parallel strips on the opposite wall), were placed for better orientation of the animal. Under one of the holes an “escape box” containing standard filler for animals was fixed. Each animal was assigned its number of the hole to which the “escape box” was fixed. The other holes remained open. Before performing the probe phase (after the operation), the number of the hole was changed.
# On the 1st day of the experiment, during the first training of rats, a habituation session was performed, which was not repeated during the probe phase. A rat was placed in the center of the circular table and kept under a non-transparent hood for 10 seconds. The light above the table was then turned on and the hood lifted. The rat was allowed to move freely around the table for 2-3 minutes.
# Fifteen minutes after the habituation session, on the 2nd, 3rd and 4th days of the experiment, the task training was repeated 4 times every 15 minutes (min) (3 min on the table surface+1 min in the “escape box” with the light off). The time during which the animal managed to reach the “escape box” was recorded at each trial.
# Short-term memory of the animals was tested on the 5th day, and long-term memory was tested on the 9th day (5th day after the last training). All the holes of the maze were closed, and the rat was allowed to freely explore the open arena for 90 seconds to find “its” corresponding hole on the table top (under which the “escape box” was previously located) based on previously acquired skills. The amount of time the animal spent searching for the correct hole, and the time it spent near the hole was recorded. The table surface was disinfected after each trial.
# 18 days after the operation, the animals had another 4-day training session (probe phase) with a changed location of the “escape box”. As in the case before the operation, short-term memory was tested on the 5th day, and long-term memory was tested on the 9th day (5th day after the last training session).
# [6] = long-term memory, 5 days following training
# [7] = short-term memory, 24 hours following training
substance,measurement,setting,value
^64Zn-aspartate,body weight before the operation,[1],432.1 ± 29.7 g
same,Q = P × I,[2],4 and 2 and 6
same,"Time spent near the entrance to the “escape box”, after surgery",[3]; 24 hours following training,22.57 ± 7.77 s
same,"Time spent near the entrance to the “escape box”, % of changes",[3]; 24 hours following training,−31.6%
same,"Time spent near the entrance to the “escape box”, before surgery",[3]; 24 hours following training,33 ± 7.39 s
same,"Time spent near the entrance to the “escape box”, after surgery",[3]; 5 days following training,29 ± 6.14 s
same,"Time spent near the entrance to the “escape box”, % of changes",[3]; 5 days following training,23.03%
same,"Time spent near the entrance to the “escape box”, before surgery",[3]; 5 days following training,23.57 ± 6.61 s
same,"Time spent to find the “escape box”, after surgery",[3]; [6],5 ± 1.54 s
same,"Time spent to find the “escape box”, % of changes",[3]; [6],−70.59%
same,"Time spent to find the “escape box”, before surgery",[3]; [6],17 ± 6.74 s
same,"Time spent to find the “escape box”, after surgery",[3]; [7],4.14 ± 0.74 s
same,"Time spent to find the “escape box”, % of changes",[3]; [7],−42.04%
same,"Time spent to find the “escape box”, before surgery",[3]; [7],7.14 ± 1.49 s
same,Q = P × I,"[4]; TH-positive hippocampal cells, individual animals 663 A, B, listed as Zn",6 and 4
same,staining intensity of TH-positive cells,[4]; hippocampus,no effect
same,"tyrosine hydroxylase expression, Q value (group mean)",[4]; hippocampus,5.0±1.4
same,expression of CD86 by circulating phagocytes,CD86,elevated
same,fraction of CD86+ cells among circulating phagocytes,CD86,increase
same,tendency towards impairment of long-term memory,[5]; Aβ25-35 AD rats,not improved
same,"Time spent near the entrance to the “escape box”, after surgery",[5]; 24 hours following training,30.67 ± 7.32 s
same,"Time spent near the entrance to the “escape box”, % of changes",[5]; 24 hours following training,12.2%
same,"Time spent near the entrance to the “escape box”, before surgery",[5]; 24 hours following training,27.33 ± 4.06 s
same,"Time spent near the entrance to the “escape box”, after surgery",[5]; 5 days following training,18.17 ± 5.38 s
same,"Time spent near the entrance to the “escape box”, % of changes",[5]; 5 days following training,−40.76%
same,"Time spent near the entrance to the “escape box”, before surgery",[5]; 5 days following training,30.67 ± 4.32 s
same,"Time spent to find the “escape box”, after surgery",[5]; [6],21.83 ± 12.53 s
same,"Time spent to find the “escape box”, % of changes",[5]; [6],48.86%
same,"Time spent to find the “escape box”, before surgery",[5]; [6],14.67 ± 3.53 s
same,"Time spent to find the “escape box”, after surgery",[5]; [7],8.33 ± 5.76 s
same,"Time spent to find the “escape box”, % of changes",[5]; [7],−37.5%
same,"Time spent to find the “escape box”, before surgery",[5]; [7],13.33 ± 7.8 s
